Experimental data from ChEMBL document CHEMBL4371076 (J Med Chem, 2019).
The source made the active and inactive calls. No cut-off for these calls is given here.

Experiments:
[1] = Unbound plasma concentration in CD1 mouse model of formalin-induced nociception at 3 mg/kg, po; type: ADME, organism-based; details: in vivo
[2] = system: Mus musculus; experiment: Analgesic activity in CD1 mouse model of formalin-induced nociception assessed as reduction in formalin-evoked paw flinching/licking response during second phase at 30 mg/kg, po pretreated for 30 mins followed by formalin treatment and measured during 15 to 45 mins post formalin injection; type: functional, organism-based
[3] = target: T1, Cytochrome P450 2D6 (Homo sapiens, UniProt P10635); experiment: Inhibition of CYP2D6 in human liver microsomes; type: ADME; details: human, microsomes
T1 sequence (P10635 whole entry): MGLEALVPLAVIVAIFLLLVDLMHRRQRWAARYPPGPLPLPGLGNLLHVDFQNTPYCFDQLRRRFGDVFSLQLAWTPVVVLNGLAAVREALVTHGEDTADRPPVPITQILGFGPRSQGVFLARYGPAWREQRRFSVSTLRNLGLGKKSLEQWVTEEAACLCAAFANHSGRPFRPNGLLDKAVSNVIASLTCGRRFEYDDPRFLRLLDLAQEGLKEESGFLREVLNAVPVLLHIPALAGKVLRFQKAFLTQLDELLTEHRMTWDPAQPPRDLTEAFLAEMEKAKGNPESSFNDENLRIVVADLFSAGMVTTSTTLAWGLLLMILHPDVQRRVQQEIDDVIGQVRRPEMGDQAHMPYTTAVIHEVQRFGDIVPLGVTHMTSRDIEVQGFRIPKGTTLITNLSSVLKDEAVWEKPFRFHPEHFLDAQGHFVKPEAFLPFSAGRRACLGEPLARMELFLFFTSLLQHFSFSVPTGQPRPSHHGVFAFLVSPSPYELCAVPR

[4] = target: T2, Cytochrome P450 2B6 (Homo sapiens, UniProt P20813); experiment: Time-dependant inhibition of CYP2B6 in human liver microsomes; type: ADME
T2 sequence (P20813 whole entry): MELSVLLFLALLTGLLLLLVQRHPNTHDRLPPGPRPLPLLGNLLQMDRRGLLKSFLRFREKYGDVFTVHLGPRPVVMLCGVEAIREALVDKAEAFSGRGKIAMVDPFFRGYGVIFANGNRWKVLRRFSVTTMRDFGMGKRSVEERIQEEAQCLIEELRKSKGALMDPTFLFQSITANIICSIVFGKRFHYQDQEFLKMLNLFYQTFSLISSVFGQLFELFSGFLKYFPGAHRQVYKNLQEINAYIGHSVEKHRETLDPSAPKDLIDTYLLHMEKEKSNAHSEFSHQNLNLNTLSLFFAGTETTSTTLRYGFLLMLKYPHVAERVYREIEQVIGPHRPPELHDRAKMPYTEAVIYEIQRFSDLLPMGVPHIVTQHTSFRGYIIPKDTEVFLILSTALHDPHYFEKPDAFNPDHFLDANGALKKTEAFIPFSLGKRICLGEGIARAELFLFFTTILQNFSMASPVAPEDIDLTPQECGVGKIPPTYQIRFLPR

[5] = target: T2, Cytochrome P450 2B6; experiment: Inhibition of CYP2B6 in human liver microsomes; type: ADME; details: human, microsomes
[6] = Permeability of the compound at pH 7.4 by PAMPA; type: ADME; details: read-out: permeability
[7] = target: T3, Cytochrome P450 2C19 (Homo sapiens, UniProt P33261); experiment: Time-dependant inhibition of CYP2C19 in human liver microsomes; type: ADME
T3 sequence (P33261 whole entry): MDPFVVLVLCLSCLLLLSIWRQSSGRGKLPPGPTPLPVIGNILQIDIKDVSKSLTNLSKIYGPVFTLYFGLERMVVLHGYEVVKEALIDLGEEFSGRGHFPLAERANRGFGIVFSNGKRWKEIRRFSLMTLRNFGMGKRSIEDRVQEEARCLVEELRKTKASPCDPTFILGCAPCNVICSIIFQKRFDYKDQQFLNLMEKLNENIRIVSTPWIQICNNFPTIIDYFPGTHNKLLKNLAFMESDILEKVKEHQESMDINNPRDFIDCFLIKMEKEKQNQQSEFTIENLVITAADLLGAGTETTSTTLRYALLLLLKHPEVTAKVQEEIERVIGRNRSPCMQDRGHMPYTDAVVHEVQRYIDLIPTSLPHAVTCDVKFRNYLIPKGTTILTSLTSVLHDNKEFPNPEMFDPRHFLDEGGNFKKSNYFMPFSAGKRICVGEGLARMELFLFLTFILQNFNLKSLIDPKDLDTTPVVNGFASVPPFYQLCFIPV

[8] = Permeability of the compound at pH 5.5 by PAMPA; type: ADME; details: read-out: permeability
[9] = target: T4, Cytochrome P450 3A4 (Homo sapiens, UniProt P08684); experiment: Inhibition of CYP3A4 in human liver microsomes; type: ADME; details: human, microsomes
T4 sequence (P08684 whole entry): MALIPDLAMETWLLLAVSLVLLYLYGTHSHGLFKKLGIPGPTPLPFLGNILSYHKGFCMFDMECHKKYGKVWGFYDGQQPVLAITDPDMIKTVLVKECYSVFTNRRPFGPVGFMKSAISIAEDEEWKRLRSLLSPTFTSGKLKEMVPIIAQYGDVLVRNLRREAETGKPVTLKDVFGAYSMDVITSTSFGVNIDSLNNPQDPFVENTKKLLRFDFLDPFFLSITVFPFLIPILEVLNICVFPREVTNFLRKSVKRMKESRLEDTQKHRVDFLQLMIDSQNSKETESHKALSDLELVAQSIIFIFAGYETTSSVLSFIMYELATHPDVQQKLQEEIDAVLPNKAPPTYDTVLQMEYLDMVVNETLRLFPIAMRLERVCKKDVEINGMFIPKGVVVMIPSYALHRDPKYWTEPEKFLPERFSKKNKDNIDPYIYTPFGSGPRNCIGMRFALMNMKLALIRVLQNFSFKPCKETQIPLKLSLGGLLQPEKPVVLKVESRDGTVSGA

[10] = target: T4, Cytochrome P450 3A4; experiment: Time-dependant inhibition of CYP3A4 in human liver microsomes; type: ADME
[11] = Fraction unbound in mouse plasma; type: ADME, cell-free
[12] = target: T5, Cytochrome P450 2C9 (Homo sapiens, UniProt P11712); experiment: Time-dependant inhibition of CYP2C9 in human liver microsomes; type: ADME
T5 sequence (P11712 whole entry): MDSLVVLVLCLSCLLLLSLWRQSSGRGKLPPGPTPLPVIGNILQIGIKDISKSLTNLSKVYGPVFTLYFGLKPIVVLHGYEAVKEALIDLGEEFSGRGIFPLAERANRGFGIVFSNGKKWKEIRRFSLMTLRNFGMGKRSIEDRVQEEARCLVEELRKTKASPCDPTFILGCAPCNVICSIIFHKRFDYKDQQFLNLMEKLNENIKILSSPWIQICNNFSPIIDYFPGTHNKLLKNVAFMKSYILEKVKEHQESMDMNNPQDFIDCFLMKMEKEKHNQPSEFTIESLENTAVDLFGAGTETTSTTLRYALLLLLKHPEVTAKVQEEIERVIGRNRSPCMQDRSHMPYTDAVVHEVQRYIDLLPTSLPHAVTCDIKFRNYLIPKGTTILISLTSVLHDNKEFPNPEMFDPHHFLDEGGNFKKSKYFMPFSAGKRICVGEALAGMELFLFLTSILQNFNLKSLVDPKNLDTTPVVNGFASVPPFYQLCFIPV

[13] = Metabolic stability in rat liver microsomes assessed as parent compound remaining at 0.5 uM after 10 mins; type: ADME, Microsome; details: read-out: Stability
[14] = Toxicity in CD1 mouse model of formalin-induced nociception assessed as prostration or sedation at 30 mg/kg, po; type: organism-based; details: in vivo
[15] = Metabolic stability in mouse liver microsomes assessed as parent compound remaining at 0.5 uM after 10 mins; type: ADME, Microsome; details: read-out: Stability
[16] = target: T5, Cytochrome P450 2C9; experiment: Inhibition of CYP2C9 in human liver microsomes; type: ADME; details: human, microsomes
[17] = target: Sodium channel protein type 9 subunit alpha (Mus musculus, UniProt Q62205); experiment: Inhibition of Nav1.7 in mouse DRG neurons at -70 mV holding potential by patch clamp electrophysiology method
[18] = target: T1, Cytochrome P450 2D6; experiment: Time-dependant inhibition of CYP2D6 in human liver microsomes; type: ADME
[19] = system: Mus musculus; experiment: Analgesic activity in CD1 mouse model of formalin-induced nociception assessed as reduction in formalin-evoked paw flinching/licking response during first phase at 30 mg/kg, po pretreated for 30 mins followed by formalin treatment and measured during first 5 mins post formalin injection; type: functional, organism-based
[20] = target: T6, Cytochrome P450 2C8 (Homo sapiens, UniProt P10632); experiment: Time-dependant inhibition of CYP2C8 in human liver microsomes; type: ADME
T6 sequence (P10632 whole entry): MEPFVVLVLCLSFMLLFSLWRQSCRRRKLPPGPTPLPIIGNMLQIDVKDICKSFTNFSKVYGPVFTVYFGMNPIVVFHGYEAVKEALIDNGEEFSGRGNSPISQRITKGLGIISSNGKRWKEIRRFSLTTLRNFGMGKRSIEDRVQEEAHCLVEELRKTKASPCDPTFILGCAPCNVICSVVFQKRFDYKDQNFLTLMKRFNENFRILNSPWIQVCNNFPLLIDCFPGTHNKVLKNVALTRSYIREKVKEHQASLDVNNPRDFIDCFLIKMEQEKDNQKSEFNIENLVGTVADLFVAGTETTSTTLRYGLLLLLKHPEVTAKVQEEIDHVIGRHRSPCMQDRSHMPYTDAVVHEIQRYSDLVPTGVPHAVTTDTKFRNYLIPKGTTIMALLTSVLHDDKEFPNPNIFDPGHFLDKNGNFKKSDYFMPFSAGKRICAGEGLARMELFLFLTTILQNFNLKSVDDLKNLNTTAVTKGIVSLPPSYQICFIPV

[21] = Toxicity in CD1 mouse model of formalin-induced nociception assessed as hypothermia at 30 mg/kg, po; type: organism-based; details: in vivo
[22] = Metabolic stability in human liver microsomes assessed as parent compound remaining at 0.5 uM after 10 mins; type: ADME, Microsome; details: read-out: Stability
[23] = Plasma concentration in CD1 mouse model of formalin-induced nociception at 3 mg/kg, po; type: ADME, organism-based; details: read-out: Cp, in vivo
[24] = target: T6, Cytochrome P450 2C8; experiment: Inhibition of CYP2C8 in human liver microsomes; type: ADME; details: human, microsomes
[25] = target: T3, Cytochrome P450 2C19; experiment: Inhibition of CYP2C19 in human liver microsomes; type: ADME; details: human, microsomes
[26] = target: Sodium channel protein type 9 subunit alpha (Homo sapiens, UniProt Q15858); experiment: Inhibition of recombinant human Nav1.7 expressed in HEK293 cells at -70 mV holding potential by patch clamp electrophysiology method; type: cell-based
Chain of Sodium channel protein type 9 subunit alpha (Homo sapiens, UniProt Q15858) (Q15858 whole entry): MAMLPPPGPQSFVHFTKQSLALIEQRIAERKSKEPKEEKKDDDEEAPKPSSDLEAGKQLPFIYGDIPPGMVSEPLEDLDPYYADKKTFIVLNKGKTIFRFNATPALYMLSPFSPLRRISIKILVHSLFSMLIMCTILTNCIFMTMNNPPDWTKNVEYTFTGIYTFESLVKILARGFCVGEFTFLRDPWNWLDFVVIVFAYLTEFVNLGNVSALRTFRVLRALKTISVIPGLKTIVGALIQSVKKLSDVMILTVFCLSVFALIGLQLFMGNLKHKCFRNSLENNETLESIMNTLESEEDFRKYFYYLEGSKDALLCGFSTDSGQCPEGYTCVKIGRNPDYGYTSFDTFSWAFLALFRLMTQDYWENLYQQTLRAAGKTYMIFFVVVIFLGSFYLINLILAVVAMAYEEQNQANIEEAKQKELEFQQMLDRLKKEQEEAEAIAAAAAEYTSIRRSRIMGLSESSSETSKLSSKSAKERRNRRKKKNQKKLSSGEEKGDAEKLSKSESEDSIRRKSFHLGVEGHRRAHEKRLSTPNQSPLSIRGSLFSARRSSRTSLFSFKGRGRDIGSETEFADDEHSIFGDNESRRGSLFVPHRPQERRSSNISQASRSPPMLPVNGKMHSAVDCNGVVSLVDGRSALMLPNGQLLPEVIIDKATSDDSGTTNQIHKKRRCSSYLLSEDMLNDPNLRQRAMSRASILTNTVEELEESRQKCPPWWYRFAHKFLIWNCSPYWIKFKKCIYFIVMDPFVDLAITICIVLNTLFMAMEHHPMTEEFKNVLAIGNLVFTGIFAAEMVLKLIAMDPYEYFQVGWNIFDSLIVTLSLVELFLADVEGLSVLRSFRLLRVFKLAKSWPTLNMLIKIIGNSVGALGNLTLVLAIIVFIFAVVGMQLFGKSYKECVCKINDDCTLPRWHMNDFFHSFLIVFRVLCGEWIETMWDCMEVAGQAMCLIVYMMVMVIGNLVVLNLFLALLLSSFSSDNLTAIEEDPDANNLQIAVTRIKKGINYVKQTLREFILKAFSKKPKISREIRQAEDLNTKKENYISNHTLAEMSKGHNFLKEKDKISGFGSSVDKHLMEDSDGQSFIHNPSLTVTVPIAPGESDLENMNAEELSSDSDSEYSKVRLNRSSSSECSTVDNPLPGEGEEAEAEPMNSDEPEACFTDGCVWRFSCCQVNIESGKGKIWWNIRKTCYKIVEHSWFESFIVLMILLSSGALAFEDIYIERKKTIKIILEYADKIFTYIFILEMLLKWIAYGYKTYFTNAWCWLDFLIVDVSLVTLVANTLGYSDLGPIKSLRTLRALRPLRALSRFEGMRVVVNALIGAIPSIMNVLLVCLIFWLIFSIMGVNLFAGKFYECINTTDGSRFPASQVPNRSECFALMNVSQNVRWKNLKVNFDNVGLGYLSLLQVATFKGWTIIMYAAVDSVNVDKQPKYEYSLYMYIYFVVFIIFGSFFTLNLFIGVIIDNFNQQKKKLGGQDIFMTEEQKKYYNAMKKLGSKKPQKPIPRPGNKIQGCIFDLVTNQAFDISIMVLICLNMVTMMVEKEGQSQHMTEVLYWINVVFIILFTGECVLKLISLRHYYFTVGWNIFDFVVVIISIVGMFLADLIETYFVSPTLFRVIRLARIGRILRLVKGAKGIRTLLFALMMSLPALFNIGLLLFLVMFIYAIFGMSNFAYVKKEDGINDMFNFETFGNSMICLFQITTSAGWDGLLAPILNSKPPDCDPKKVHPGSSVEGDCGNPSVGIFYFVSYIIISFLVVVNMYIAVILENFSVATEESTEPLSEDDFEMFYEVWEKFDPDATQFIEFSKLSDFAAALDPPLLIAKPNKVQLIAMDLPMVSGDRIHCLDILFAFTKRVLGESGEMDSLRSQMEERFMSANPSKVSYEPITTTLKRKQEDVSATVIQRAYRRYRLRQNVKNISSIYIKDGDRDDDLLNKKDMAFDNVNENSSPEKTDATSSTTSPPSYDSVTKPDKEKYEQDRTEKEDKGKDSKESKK

**Q.** With `CC(C)COc1ncc(-c2nn(C)c3cc(C(=O)NS(C)(=O)=O)ccc23)cc1Cl` as the molecule, how does the “Cp(f)” value [1] read?
**A.** 0.56 nM

**Q.** And the Activity [2]?
**A.** inactive

**Q.** What about the “inhibition (INH)” value [3] of the same molecule?
**A.** Not Active

**Q.** And the TDI [4]?
**A.** Not Active

**Q.** What about the “inhibition (INH)” value [5] of the same molecule?
**A.** Not Active

**Q.** What about the Papp [6] of the same molecule?
**A.** 41.7 ×10⁻⁶ cm/s

**Q.** What about the TDI [7] of the same molecule?
**A.** Not Active

**Q.** And the Papp [8]?
**A.** 116 ×10⁻⁶ cm/s

**Q.** What about the “inhibition (INH)” value [9] of the same molecule?
**A.** Not Active

**Q.** What about the TDI [10] of the same molecule?
**A.** Not Active

**Q.** What about the fraction unbound [11] of the same molecule?
**A.** 0.002

**Q.** What about the TDI [12] of the same molecule?
**A.** Not Active

**Q.** What about the remaining at 10 min, 0.5 µM [13] of the same molecule?
**A.** 100%

**Q.** And the Activity [14]?
**A.** Toxic

**Q.** And the remaining at 10 min, 0.5 µM [15]?
**A.** 100%

**Q.** And the “inhibition (INH)” value [16]?
**A.** Not Active

**Q.** What about the IC50 [17] of the same molecule?
**A.** 12 nM

**Q.** And the TDI [18]?
**A.** Not Active

**Q.** And the Activity [19]?
**A.** inactive

**Q.** And the TDI [20]?
**A.** Not Active

**Q.** What about the Activity [21] of the same molecule?
**A.** Toxic

**Q.** And the remaining at 10 min, 0.5 µM [22]?
**A.** 100%

**Q.** And the concentration [23]?
**A.** 280 nM

**Q.** What about the “inhibition (INH)” value [24] of the same molecule?
**A.** Not Active

**Q.** And the “inhibition (INH)” value [25]?
**A.** Not Active

**Q.** And the IC50 [26]?
**A.** 11 nM
